According to article PMC11111408, “Concurrent inhibition of oncogenic and wild-type RAS-GTP for cancer therapy” (Nature, 2024):
Several values for one entry are separate records, joined by “and”; a condition that tells them apart may be missing. Equal entries are not always repeated.

Assays:
KRAS^Q61H = KRAS^Q61H (Homo sapiens, UniProt P01116+P62937, Q61H); assay: Biochemical RAS–RAF (BRAF RBD) disruption, TR-FRET
From the text: (§1) Time-resolved fluorescence resonance energy transfer (TR-FRET) was used as previously described to assess disruption of the interactions between wild-type RAS or the mutant oncogenic RAS proteins and the RAS-binding domain of BRAF, and to assess the induction of interactions between the RAS proteins and CYPA[12].

NRAS^Q61R = NRAS^Q61R (Homo sapiens, UniProt P01111+P62937, Q61R); assay: Biochemical RAS–RAF (BRAF RBD) disruption, TR-FRET; conditions: (95% CI)
From the text: as §1

NRAS^Q61L = NRAS^Q61L (Homo sapiens, UniProt P01111+P62937, Q61L); assay: Biochemical RAS–RAF (BRAF RBD) disruption, TR-FRET; conditions: (95% CI)
From the text: as §1

KRAS^G13D = KRAS^G13D (Homo sapiens, UniProt P01116+P62937, G13D); assay: Biochemical RAS–RAF (BRAF RBD) disruption, TR-FRET
From the text: as §1

NRAS WT = NRAS WT (Homo sapiens, UniProt P01111+P62937); assay: Biochemical RAS–RAF (BRAF RBD) disruption, TR-FRET
From the text: as §1

KRAS^G12A = KRAS^G12A (Homo sapiens, UniProt P01116+P62937, G12A); assay: Biochemical RAS–RAF (BRAF RBD) disruption, TR-FRET
From the text: as §1

NRAS^Q61K = NRAS^Q61K (Homo sapiens, UniProt P01111+P62937, Q61K); assay: Biochemical RAS–RAF (BRAF RBD) disruption, TR-FRET
From the text: as §1

HRAS^G13R = HRAS^G13R (Homo sapiens, UniProt P01112+P62937, G13R); assay: Biochemical RAS–RAF (BRAF RBD) disruption, TR-FRET; conditions: HRAS^G13R; BRAF RBD; (95% CI); read-out: Biochemical RAS-RAF Disruption EC50
From the text: as §1

KRAS^G13C = KRAS^G13C (Homo sapiens, UniProt P01116+P62937, G13C); assay: Biochemical RAS–RAF (BRAF RBD) disruption, TR-FRET
From the text: as §1

KRAS^G12S = KRAS^G12S (Homo sapiens, UniProt P01116+P62937, G12S); assay: Biochemical RAS–RAF (BRAF RBD) disruption, TR-FRET; design: His6-TEV (N); made in house; host or cells: E. coli BL21(DE3)
From the text: as §1

HRAS WT = HRAS WT (Homo sapiens, UniProt P01112+P62937); assay: Biochemical RAS–RAF (BRAF RBD) disruption, TR-FRET; design: His6-TEV (N); made in house; host or cells: E. coli BL21(DE3)
From the text: as §1

[1] = tested on: Pa16C cells expressing MEK1 mutants; assay: Proliferation (Calcein AM) of Pa16C cells expressing MEK1 mutants; assay type: cell-based, human
KRAS^G12V = KRAS^G12V (Homo sapiens, UniProt P01116+P62937, G12V); assay: Cellular RAS–RAF (CRAF RBD) disruption, nano-BRET in U2OS cells; assay type: cell-based; design: expressed in transfected cells; host or cells: U2OS PPIA-KO; Cellular RAS-RAF disruption G12V / Cellular nano-BRET G12V: scale not given here
From the text: KRAS4B, or other small GTPases, containing the indicated mutations were cloned in pNLF-N or pHTN plasmids for expression with an N-terminal nanoluciferase or HaloTag fusion, respectively. […] The following day, the cells were collected by Trypsin and reseeded in a white tissue culture-treated 96-well plate in OptiMem phenol red-free medium (Gibco) containing 4% FBS and a 1:1,000 dilution of NanoBRET 618 HaloTag ligand (Promega). For endpoint concentration response curves, vivazine nanoluciferase substrate was added to 1× concentration in OptiMem phenol red-free medium with 4% FBS. Varying concentrations of inhibitor were added and incubated for 1 or 4 h before the nano-BRET signal was measured on a Perkin Elmer Envision plate reader. For kinetic assays, endurazine nanoluciferase substrate was used in place of vivazine, and the plate was placed in a Cytation5 multi-mode reader pre-equilibrated to 37 °C and 5% CO2.

KRAS^G12R = KRAS^G12R (Homo sapiens, UniProt P01116+P62937, G12R); assay: RAS binding affinity of compound-bound CYPA (Kd2), SPR; design: made in house; host or cells: BL21(DE3) Escherichia coli; conditions: steady state SPR, (95% CI)

## CCn1c(-c2cc(N3CCN(C4CC4)CC3)cnc2[C@H](C)OC)c2c3cc(ccc31)-c1csc(n1)C[C@H](NC(=O)[C@H]1[C@@H]3COC[C@@H]31)C(=O)N1CCC[C@H](N1)C(=O)OCC(C)(C)C2 [RMC-7977]
KRAS^Q61H
  EC50: 47.7 nM
NRAS^Q61R
  EC50: 181 nM
NRAS^Q61L
  EC50: 145 nM
KRAS^G13D
  EC50: 142 nM
NRAS WT
  EC50: 57.7 nM
KRAS^G12A
  EC50: 102 nM
NRAS^Q61K
  EC50: 53.9 nM
HRAS^G13R
  EC50: 23.7 nM
KRAS^G13C
  EC50: 49.7 nM
KRAS^G12S
  EC50: 107 nM
HRAS WT
  EC50: 59.9 nM
[1]; MEK1E102-I103del, inhibitor 0.010 nM
  Proliferation of Pa16C cells expressing MEK1 mutant constructs: 100
[1]; MEK1E102-I103del, inhibitor 0.046 nM
  Proliferation of Pa16C cells expressing MEK1 mutant constructs: 104.2 and 107.7 and 121 and 88.4
[1]; MEK1E102-I103del, inhibitor 11.111 nM
  Proliferation of Pa16C cells expressing MEK1 mutant constructs: 80.9 and 75.7 and 68.8 and 87.1
[1]; MEK1E102-I103del, inhibitor 33.333 nM
  Proliferation of Pa16C cells expressing MEK1 mutant constructs: 72.5 and 68.1 and 61 and 93
[1]; MEK1E102-I103del, inhibitor 100.000 nM
  Proliferation of Pa16C cells expressing MEK1 mutant constructs: 65.9 and 65.1 and 49.1 and 77.1
[1]; MEK1E102-I103del, inhibitor 300.000 nM
  Proliferation of Pa16C cells expressing MEK1 mutant constructs: 58.5 and 56.3 and 42.3 and 60.5
[1]; MEK1K57N, inhibitor 0.010 nM
  Proliferation of Pa16C cells expressing MEK1 mutant constructs: 100
[1]; MEK1K57N, inhibitor 0.046 nM
  Proliferation of Pa16C cells expressing MEK1 mutant constructs: 132.7 and 110.5 and 108.3
[1]; MEK1K57N, inhibitor 11.111 nM
  Proliferation of Pa16C cells expressing MEK1 mutant constructs: 106.5 and 108.3 and 128.9
[1]; MEK1K57N, inhibitor 33.333 nM
  Proliferation of Pa16C cells expressing MEK1 mutant constructs: 101 and 88.9 and 126.9
[1]; MEK1K57N, inhibitor 100.000 nM
  Proliferation of Pa16C cells expressing MEK1 mutant constructs: 86.3 and 76.5 and 119.3
[1]; MEK1K57N, inhibitor 300.000 nM
  Proliferation of Pa16C cells expressing MEK1 mutant constructs: 68.3 and 60.7 and 90.3
[1]; MEK1Q56P, inhibitor 0.010 nM
  Proliferation of Pa16C cells expressing MEK1 mutant constructs: 100
[1]; MEK1Q56P, inhibitor 0.046 nM
  Proliferation of Pa16C cells expressing MEK1 mutant constructs: 111.1 and 128.1 and 116.5
[1]; MEK1Q56P, inhibitor 11.111 nM
  Proliferation of Pa16C cells expressing MEK1 mutant constructs: 109 and 97.6 and 77.9
[1]; MEK1Q56P, inhibitor 33.333 nM
  Proliferation of Pa16C cells expressing MEK1 mutant constructs: 99.6 and 83.8 and 68
[1]; MEK1Q56P, inhibitor 100.000 nM
  Proliferation of Pa16C cells expressing MEK1 mutant constructs: 81.8 and 65.9 and 54.2
[1]; MEK1Q56P, inhibitor 300.000 nM
  Proliferation of Pa16C cells expressing MEK1 mutant constructs: 72.6 and 57.1 and 47.4
[1]; MEK1S218D/S222D, inhibitor 0.010 nM
  Proliferation of Pa16C cells expressing MEK1 mutant constructs: 100
[1]; MEK1S218D/S222D, inhibitor 0.046 nM
  Proliferation of Pa16C cells expressing MEK1 mutant constructs: 98 and 111.5 and 106.4 and 100.9
[1]; MEK1S218D/S222D, inhibitor 11.111 nM
  Proliferation of Pa16C cells expressing MEK1 mutant constructs: 89.6 and 94.3 and 98.3 and 90.9
[1]; MEK1S218D/S222D, inhibitor 33.333 nM
  Proliferation of Pa16C cells expressing MEK1 mutant constructs: 86.8 and 90.6 and 104.9 and 86
[1]; MEK1S218D/S222D, inhibitor 100.000 nM
  Proliferation of Pa16C cells expressing MEK1 mutant constructs: 81.6 and 87.3 and 91 and 73.6
[1]; MEK1S218D/S222D, inhibitor 300.000 nM
  Proliferation of Pa16C cells expressing MEK1 mutant constructs: 72.8 and 76 and 71.6 and 55.5
[1]; MEK1WT, inhibitor 0.010 nM
  Proliferation of Pa16C cells expressing MEK1 mutant constructs: 100
[1]; MEK1WT, inhibitor 0.046 nM
  Proliferation of Pa16C cells expressing MEK1 mutant constructs: 97.2 and 123.9 and 122.4 and 107.7
[1]; MEK1WT, inhibitor 11.111 nM
  Proliferation of Pa16C cells expressing MEK1 mutant constructs: 34.9 and 22.9 and 31.4 and 22.8
[1]; MEK1WT, inhibitor 33.333 nM
  Proliferation of Pa16C cells expressing MEK1 mutant constructs: 19.9 and 13.1 and 14.8 and 12.8
[1]; MEK1WT, inhibitor 100.000 nM
  Proliferation of Pa16C cells expressing MEK1 mutant constructs: 14.4 and 9 and 9.5 and 10.2
[1]; MEK1WT, inhibitor 300.000 nM
  Proliferation of Pa16C cells expressing MEK1 mutant constructs: 9.7 and 8 and 8.2 and 8.6
KRAS^G12V; KRAS^G12V, CRAF RBD, nano-BRET, (95% CI)
  EC50: 7.66 nM
KRAS^G12V; RMC-7977 0.0254 nM
  Cellular RAS-RAF disruption G12V: 100.00
KRAS^G12V; RMC-7977 0.05 nM
  Cellular RAS-RAF disruption G12V: 95.09 and 96.3702
KRAS^G12V; RMC-7977 0.08 nM
  Cellular RAS-RAF disruption G12V: 99.62
KRAS^G12V; RMC-7977 0.23 nM
  Cellular RAS-RAF disruption G12V: 93.81
KRAS^G12V; RMC-7977 0.46 nM
  Cellular RAS-RAF disruption G12V: 63.26 and 77.9214
KRAS^G12V; RMC-7977 2.06 nM
  Cellular RAS-RAF disruption G12V: 66.75
KRAS^G12V; RMC-7977 4.12 nM
  Cellular RAS-RAF disruption G12V: 17.09 and 32.4499
KRAS^G12V; RMC-7977 12.35 nM
  Cellular RAS-RAF disruption G12V: 8.26 and 13.953
KRAS^G12V; RMC-7977 18.52 nM
  Cellular RAS-RAF disruption G12V: 13.89
KRAS^G12V; RMC-7977 37.04 nM
  Cellular RAS-RAF disruption G12V: 4 and 4.5731
KRAS^G12V; RMC-7977 55.56 nM
  Cellular RAS-RAF disruption G12V: 3.90
KRAS^G12V; RMC-7977 111.11 nM
  Cellular RAS-RAF disruption G12V: 1.99 and 1.6717
KRAS^G12V; RMC-7977 166.67 nM
  Cellular RAS-RAF disruption G12V: 0.38
KRAS^G12V; RMC-7977 500.00 nM
  Cellular RAS-RAF disruption G12V: 0.05
KRAS^G12V; calculated RMC-7977:CYPA complexes 1.95 nM
  Cellular nano-BRET G12V: 99.62
KRAS^G12V; calculated RMC-7977:CYPA complexes 34.93 nM
  Cellular nano-BRET G12V: 41.01 and 56.3646
KRAS^G12V; calculated RMC-7977:CYPA complexes 52.21 nM
  Cellular nano-BRET G12V: 66.75
KRAS^G12V; calculated RMC-7977:CYPA complexes 153.42 nM
  Cellular nano-BRET G12V: 36.46
KRAS^G12V; calculated RMC-7977:CYPA complexes 297.71 nM
  Cellular nano-BRET G12V: 8.26 and 13.953
KRAS^G12V; calculated RMC-7977:CYPA complexes 433.65 nM
  Cellular nano-BRET G12V: 13.89
KRAS^G12V; calculated RMC-7977:CYPA complexes 798.08 nM
  Cellular nano-BRET G12V: 4 and 4.5731
KRAS^G12V; calculated RMC-7977:CYPA complexes 1814.88 nM
  Cellular nano-BRET G12V: 1.99 and 1.6717
KRAS^G12V; calculated RMC-7977:CYPA complexes 2304.15 nM
  Cellular nano-BRET G12V: 0.38
KRAS^G12V; calculated RMC-7977:CYPA complexes 3597.12 nM
  Cellular nano-BRET G12V: 0.05
KRAS^G12R
  Kd: 272 nM
